Results published in paper PMC8593021, “Biophysical and functional characterization of the human TAS1R2 sweet taste receptor overexpressed in a HEK293S inducible cell line” (Scientific Reports, 2021).

Columns and labels:
hTAS1R2/hTAS1R3 = target: T1, hTAS1R2/hTAS1R3 (Homo sapiens, UniProt Q7RTX0+Q8TE23); assay: Calcium assay (GCaMP6S) in HEK293T-Gα16gust44 cells transfected with hTAS1R2-FLAG and hTAS1R3-FLAG; format: cell-based; details: HEK293T-Gα16gust44 cells transiently transfected with GCaMP6S
T1 construct: expressed in transfected cells; host or cells: HEK293T cells stably expressing Gα16gust44, transiently transfected
T1 sequence (Q8TE23 20-839): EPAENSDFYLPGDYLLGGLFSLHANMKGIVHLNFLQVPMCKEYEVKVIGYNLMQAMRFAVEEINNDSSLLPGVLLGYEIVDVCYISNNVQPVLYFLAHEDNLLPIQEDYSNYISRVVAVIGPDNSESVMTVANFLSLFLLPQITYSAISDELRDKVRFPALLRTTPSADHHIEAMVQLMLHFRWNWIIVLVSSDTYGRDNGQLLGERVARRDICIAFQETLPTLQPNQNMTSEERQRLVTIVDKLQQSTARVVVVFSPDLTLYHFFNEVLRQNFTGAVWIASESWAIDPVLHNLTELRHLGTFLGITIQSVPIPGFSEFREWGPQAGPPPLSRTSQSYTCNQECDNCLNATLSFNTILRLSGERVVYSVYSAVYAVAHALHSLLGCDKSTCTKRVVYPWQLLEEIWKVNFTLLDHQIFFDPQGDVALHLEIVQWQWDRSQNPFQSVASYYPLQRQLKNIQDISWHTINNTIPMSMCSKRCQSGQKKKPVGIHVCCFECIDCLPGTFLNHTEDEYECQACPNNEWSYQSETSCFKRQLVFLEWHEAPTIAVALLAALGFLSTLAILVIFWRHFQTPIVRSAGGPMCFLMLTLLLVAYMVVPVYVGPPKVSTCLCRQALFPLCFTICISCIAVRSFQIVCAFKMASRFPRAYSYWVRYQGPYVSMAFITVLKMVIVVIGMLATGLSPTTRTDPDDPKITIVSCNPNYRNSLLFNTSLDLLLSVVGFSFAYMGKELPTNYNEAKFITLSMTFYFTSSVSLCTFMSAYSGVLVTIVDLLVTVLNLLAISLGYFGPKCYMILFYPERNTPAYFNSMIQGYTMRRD
T1 sequence (Q7RTX0 21-852): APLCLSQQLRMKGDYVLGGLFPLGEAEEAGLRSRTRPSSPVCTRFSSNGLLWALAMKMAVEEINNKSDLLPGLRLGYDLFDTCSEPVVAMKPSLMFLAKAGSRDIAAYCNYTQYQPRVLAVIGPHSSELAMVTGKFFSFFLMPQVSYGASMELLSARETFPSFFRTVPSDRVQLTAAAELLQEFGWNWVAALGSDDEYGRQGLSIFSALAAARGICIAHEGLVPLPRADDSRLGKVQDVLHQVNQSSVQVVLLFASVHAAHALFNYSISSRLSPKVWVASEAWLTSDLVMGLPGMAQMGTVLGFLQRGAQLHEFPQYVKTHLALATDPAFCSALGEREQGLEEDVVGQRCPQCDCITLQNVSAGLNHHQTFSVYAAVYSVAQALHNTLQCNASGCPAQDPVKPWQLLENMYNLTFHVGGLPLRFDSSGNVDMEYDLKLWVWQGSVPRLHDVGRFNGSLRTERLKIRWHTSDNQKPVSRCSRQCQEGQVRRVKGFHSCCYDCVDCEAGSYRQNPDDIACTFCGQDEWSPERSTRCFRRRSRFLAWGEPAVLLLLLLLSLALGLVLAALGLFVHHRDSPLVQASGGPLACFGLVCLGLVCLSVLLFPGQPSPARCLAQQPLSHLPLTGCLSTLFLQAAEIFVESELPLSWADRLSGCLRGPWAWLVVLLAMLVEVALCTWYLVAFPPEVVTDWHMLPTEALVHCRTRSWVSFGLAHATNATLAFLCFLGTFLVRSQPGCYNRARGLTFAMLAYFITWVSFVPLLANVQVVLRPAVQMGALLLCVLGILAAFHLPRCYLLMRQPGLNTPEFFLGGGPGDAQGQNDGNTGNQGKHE
Description: (§1) We used a calcium imaging assay to establish dose–response curves for the sweet taste receptor hTAS1R2/hTAS1R3 and determine EC50 values for the sweet stimuli previously tested in spectrofluorimetric experiments. We cloned the cDNAs coding hTAS1R2 and hTAS1R3 subunits into pcDNA6 and pcDNA4 expression plasmids, respectively, and we added FLAG tag to C-terminus of each construct to measure protein expression level by immunocytochemistry as described previously. HEK293T cells stably transfected with Gα16gust44 were seeded at a density of 0.35 × 10^6 cells per well into 96-well black walled, clear bottom microtiter plates (Falcon) in high-glucose DMEM supplemented with 2 mM GlutaMAX, 10% dialyzed foetal bovine serum, penicillin/streptomycin and G418 (400 µg/mL) at 37 °C and 6.3% CO2, in a humidified atmosphere. After 48 h, the cells were transiently transfected with each TAS1R subunit (60 ng/well for each plasmid) and plasmid pGP-CMV-GCaMP6S (Addgene #40753, 50 ng per well) coding for a green fluorescent protein-based calcium indicator, using Fugene HD (0.4 µL/well). After a further 24 h incubation, the cells were washed twice with buffer C1 and then stimulated with sweet tasting compounds. After excitation at 488 nm, calcium responses were recorded at 510 nm using a Molecular Devices FlexStation 3 system. Acquisition was made simultaneously from 8 wells corresponding to the range of taste solutions. We averaged the responses of 18 wells receiving the same stimulus one three independent experiments. We subtracted the mean calcium traces of mock-transfected cells stimulated with the same concentration of stimulus. Plots of the fluorescence variation amplitude versus concentration were fitted by four-parameter logistic nonlinear regression allowing us to calculate the EC50 values of activation.

hTAS1R3 = target: T2, hTAS1R3 (Homo sapiens, UniProt Q7RTX0); assay: Calcium assay (GCaMP6S) in HEK293T-Gα16gust44 cells transfected with hTAS1R3-FLAG alone; format: cell-based; details: HEK293T-Gα16gust44 cells transiently transfected with GCaMP6S and hTAS1R3-FLAG alone
T2 construct: expressed in transfected cells; host or cells: HEK293T cells stably expressing Gα16gust44, transiently transfected
T2 sequence (Q7RTX0 21-852): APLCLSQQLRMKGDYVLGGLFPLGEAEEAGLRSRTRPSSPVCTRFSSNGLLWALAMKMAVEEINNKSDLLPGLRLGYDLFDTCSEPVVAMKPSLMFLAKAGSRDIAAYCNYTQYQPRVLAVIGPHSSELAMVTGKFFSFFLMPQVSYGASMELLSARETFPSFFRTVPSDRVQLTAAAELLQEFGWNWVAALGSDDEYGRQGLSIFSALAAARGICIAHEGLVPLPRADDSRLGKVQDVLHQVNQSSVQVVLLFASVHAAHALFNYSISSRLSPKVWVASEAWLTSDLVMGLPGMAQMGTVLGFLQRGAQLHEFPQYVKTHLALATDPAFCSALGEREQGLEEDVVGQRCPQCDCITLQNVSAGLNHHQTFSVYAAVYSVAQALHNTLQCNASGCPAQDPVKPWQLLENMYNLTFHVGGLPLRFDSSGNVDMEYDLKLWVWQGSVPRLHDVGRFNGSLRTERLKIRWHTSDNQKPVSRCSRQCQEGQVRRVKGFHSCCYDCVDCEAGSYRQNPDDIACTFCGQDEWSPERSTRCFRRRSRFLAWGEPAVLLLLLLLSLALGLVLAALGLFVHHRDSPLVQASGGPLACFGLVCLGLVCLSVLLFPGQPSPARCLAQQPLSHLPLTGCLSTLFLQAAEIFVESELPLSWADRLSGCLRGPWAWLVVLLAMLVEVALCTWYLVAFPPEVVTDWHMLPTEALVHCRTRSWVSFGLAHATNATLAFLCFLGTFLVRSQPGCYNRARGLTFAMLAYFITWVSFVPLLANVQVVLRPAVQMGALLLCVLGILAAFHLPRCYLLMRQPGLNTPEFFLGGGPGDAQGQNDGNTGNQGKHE
Description: as §1

hTAS1R2 [1] = target: T3, hTAS1R2 (Homo sapiens, UniProt Q8TE23); assay: Intrinsic tryptophan fluorescence ligand binding to purified detergent-solubilized hTAS1R2; set-up: made in house; details: purified FLAG-tagged hTAS1R2 0.10 µM in PBS, 0.1% LMNG, 20 °C; λex 280 nm, λem 340 nm
T3 sequence (Q8TE23 20-839): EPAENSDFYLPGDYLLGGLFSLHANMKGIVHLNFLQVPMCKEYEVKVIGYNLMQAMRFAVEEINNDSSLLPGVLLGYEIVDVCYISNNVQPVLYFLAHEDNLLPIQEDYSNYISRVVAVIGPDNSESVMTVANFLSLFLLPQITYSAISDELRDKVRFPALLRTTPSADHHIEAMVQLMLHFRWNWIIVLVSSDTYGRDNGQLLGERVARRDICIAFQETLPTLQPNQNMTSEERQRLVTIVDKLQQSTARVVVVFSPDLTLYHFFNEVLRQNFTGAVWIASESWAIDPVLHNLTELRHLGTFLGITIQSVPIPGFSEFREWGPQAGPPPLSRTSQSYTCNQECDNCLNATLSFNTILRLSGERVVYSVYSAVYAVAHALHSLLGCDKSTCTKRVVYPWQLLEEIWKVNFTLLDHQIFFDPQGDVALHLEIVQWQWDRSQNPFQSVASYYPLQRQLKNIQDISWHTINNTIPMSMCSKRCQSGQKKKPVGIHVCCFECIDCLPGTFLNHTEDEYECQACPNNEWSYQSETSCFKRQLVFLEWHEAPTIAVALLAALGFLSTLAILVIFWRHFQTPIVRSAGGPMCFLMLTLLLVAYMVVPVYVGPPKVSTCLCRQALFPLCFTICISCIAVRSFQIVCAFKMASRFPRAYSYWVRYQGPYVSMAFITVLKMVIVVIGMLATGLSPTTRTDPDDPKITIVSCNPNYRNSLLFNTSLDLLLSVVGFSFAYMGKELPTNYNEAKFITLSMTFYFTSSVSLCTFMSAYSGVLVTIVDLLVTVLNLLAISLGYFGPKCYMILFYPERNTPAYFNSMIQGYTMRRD
Description: Intrinsic fluorescence spectra were recorded with a Cary Eclipse spectrofluorimeter (Varian Instruments, Les Ulis, France) equipped with a Peltier temperature control unit. The temperature was maintained at 20 °C. FLAG-tagged hTAS1R2 protein (0.10 µM in PBS, 0.1% LMNG buffer) was excited at 280 nm, and the emission spectra were recorded from 300 to 400 nm, with a 10 nm bandwidth for both excitation and emission in the presence and absence of ligands. The sweetener solutions were freshly prepared in PBS-0.1% LMNG buffer. Successive aliquots of ligand solutions were added to 400 µL of the FLAG-tagged hTAS1R2 solution. […] The fluorescence measurements were corrected for bleaching and nonspecific buffer quenching. The dissociation constants (Kd) were calculated from a plot of the fluorescence intensity measured at the maximum emission wavelength (340 nm) versus the concentration of total ligand obtained with a standard nonlinear regression method using SigmaPlot software (Systat Software Inc., San Jose, CA, USA). The reported Kd values are the average of triplicate measurements performed on at least three independently purified protein samples.

hTAS1R2 [2] = target: T3, hTAS1R2; assay: Calcium assay (GCaMP6S) in HEK293T-Gα16gust44 cells transfected with hTAS1R2-FLAG alone; format: cell-based; details: HEK293T-Gα16gust44 cells transiently transfected with GCaMP6S and hTAS1R2-FLAG alone
Description: as §1, with “After a further 24 h incubation, the cells were washed twice with buffer C1 and then stimulated with sweet tasting compounds.” left out, “Acquisition was made simultaneously from 8 wells corresponding to the range of taste solutions. We averaged the responses of 18 wells receiving the same stimulus one three independent experiments. We subtracted the mean calcium traces of mock-transfected cells stimulated with the same concentration of stimulus.” left out

[3] = target: the molecule itself; assay: SEC-MALS; pooled gel filtration peak 4 (fractions 14-16) of FLAG-tagged hTAS1R2; Superdex 200 Increase 3.2/300, PBS with 0.1% LMNG, pH 7.3, 0.1 mL/min; MALS, RI and UV (280 nm) detectors; protein-detergent complexes

Molecule	EC50 (hTAS1R2/hTAS1R3)	EC50 hTAS1R3 (hTAS1R3)	Kd (hTAS1R2 [1])	EC50 (hTAS1R2 [2])	stoichiometry N [3]
CC1=CC(=O)NS(=O)(=O)O1 [Acesulfame-K, acesulfame-K]	213 ± 59 µM	n.r.	164 ± 53 µM	–	–
C=C(C)C1CC=C(/C=N/O)CC1 (stereo in doubt) [Perillartine, perillartine]	2.54 ± 0.48 µM	n.r.	373 ± 110 µM	61 ± 13 µM	–
COC(=O)[C@H](Cc1ccccc1)NC(=O)[C@H](CC(=O)O)NCCC(C)(C)C [Neotame, neotame]	0.9 ± 0.09 µM	n.r.	2.78 ± 0.69 µM	–	–
O=S(=O)(O)NC1CCCCC1 [Cyclamate-Na, cyclamate-Na]	767 ± 83 µM	n.r.	–	–	–
OC[C@H]1O[C@H](O[C@]2(CCl)O[C@H](CCl)[C@@H](O)[C@@H]2O)[C@H](O)[C@@H](O)[C@H]1Cl [Sucralose, sucralose]	36 ± 2 µM	n.r.	29 ± 8 µM	–	–
FLAG-tagged human TAS1R2 (taste receptor type 1, member 2) (receptor, UniProt Q8TE23 20-839, looked up, human TAS1R2 (taste receptor type 1, member 2), UniProtKB Q8TE23, full-length protein from a codon-optimised synthetic gene; the purified protein is still detected and captured by anti-FLAG M2; Theoretical mass of FLAG-tagged hTAS1R2 printed as 96.2 kDa; In LMNG detergent; also called hTAS1R2; FLAG-hTAS1R2; not shown: FLAG, N-terminal, kept) EPAENSDFYLPGDYLLGGLFSLHANMKGIVHLNFLQVPMCKEYEVKVIGYNLMQAMRFAVEEINNDSSLLPGVLLGYEIVDVCYISNNVQPVLYFLAHEDNLLPIQEDYSNYISRVVAVIGPDNSESVMTVANFLSLFLLPQITYSAISDELRDKVRFPALLRTTPSADHHIEAMVQLMLHFRWNWIIVLVSSDTYGRDNGQLLGERVARRDICIAFQETLPTLQPNQNMTSEERQRLVTIVDKLQQSTARVVVVFSPDLTLYHFFNEVLRQNFTGAVWIASESWAIDPVLHNLTELRHLGTFLGITIQSVPIPGFSEFREWGPQAGPPPLSRTSQSYTCNQECDNCLNATLSFNTILRLSGERVVYSVYSAVYAVAHALHSLLGCDKSTCTKRVVYPWQLLEEIWKVNFTLLDHQIFFDPQGDVALHLEIVQWQWDRSQNPFQSVASYYPLQRQLKNIQDISWHTINNTIPMSMCSKRCQSGQKKKPVGIHVCCFECIDCLPGTFLNHTEDEYECQACPNNEWSYQSETSCFKRQLVFLEWHEAPTIAVALLAALGFLSTLAILVIFWRHFQTPIVRSAGGPMCFLMLTLLLVAYMVVPVYVGPPKVSTCLCRQALFPLCFTICISCIAVRSFQIVCAFKMASRFPRAYSYWVRYQGPYVSMAFITVLKMVIVVIGMLATGLSPTTRTDPDDPKITIVSCNPNYRNSLLFNTSLDLLLSVVGFSFAYMGKELPTNYNEAKFITLSMTFYFTSSVSLCTFMSAYSGVLVTIVDLLVTVLNLLAISLGYFGPKCYMILFYPERNTPAYFNSMIQGYTMRRD	–	–	–	–	2
